From paper PMC2721771 (Purinergic Signalling, 2008)
Like-named read-outs stand apart in the source and are kept apart here. One block for each compound: values may come before it.

Key:
rA3AR = details: cited from earlier work
rA1AR = details: cited from earlier work
[1] = target: T1, rat A3 adenosine receptor (Rattus norvegicus, UniProt P28647); assay type: binding; details: vs [125I]MRS1898 0.1 nM, rA3AR in CHO membranes, mean ± SEM
T1 sequence (P28647 1-320): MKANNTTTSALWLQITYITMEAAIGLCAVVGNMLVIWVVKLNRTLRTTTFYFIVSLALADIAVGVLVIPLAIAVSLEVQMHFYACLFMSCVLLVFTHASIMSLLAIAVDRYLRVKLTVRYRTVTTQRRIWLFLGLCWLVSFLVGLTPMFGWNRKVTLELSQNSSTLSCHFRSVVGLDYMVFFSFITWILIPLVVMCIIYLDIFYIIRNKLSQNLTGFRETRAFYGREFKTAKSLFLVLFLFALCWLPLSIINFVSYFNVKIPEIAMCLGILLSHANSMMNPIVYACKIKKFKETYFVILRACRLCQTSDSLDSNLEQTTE

[2] = Storage stability of the trimethylstannyl precursor; assay type: physicochemical; details: −8 °C for several months
hA3AR = details: cited from earlier work
mouse A3AR = details: cited from earlier work

SMILES: CNC(=O)[C@H]1O[C@@H](n2cnc3c(NCc4ccc(N)c(I)c4)ncnc32)[C@H](O)[C@@H]1O [[^125I]I-AB-MECA, N^6-(4-amino-3-iodobenzyl)-5′-N-methylcarboxamidoadenosine]
Kd (rA3AR; rat A3AR): ~1 nM | Kd (rA3AR; read-out: affinity for rA3AR, radioligand affinity, A3): 1.48 nM | Kd (rA1AR; read-out: affinity for rA1AR, radioligand affinity, A1): 3.42 nM

SMILES: Nc1ccc(CCNc2ncnc3c2ncn3[C@@H]2O[C@H](CO)[C@@H](O)[C@H]2O)cc1I [[^125I]I-APNEA, N^6-(4-amino-3-iodophenylethyl)-adenosine]
Kd (rA3AR; rA3AR): 15 nM | Kd (rA1AR; rA1AR): 1.32 nM

SMILES: CCCOC(=O)c1c(-c2ccccc2)nc(CC)c(C(=O)SCC)c1CCC [MRS1523, 5-propyl-2-ethyl-4-propyl-3-(ethylsulfanylcarbonyl)-6-phenylpyridine-5-carboxylate]
Ki [1]: 518 ± 236 nM

stability upon storage [2]: stable
SMILES: CNC(=O)[C@]12C[C@@H]1[C@@H](n1cnc3c(NCc4cccc([125I])c4)nc(Cl)nc31)[C@H](O)[C@@H]2O [Compound 10]

SMILES: CCNC(=O)[C@H]1O[C@@H](n2cnc3c(N)ncnc32)[C@H](O)[C@@H]1O [[^3H]NECA, 5′-N-ethylcarboxamidoadenosine]
binding affinity at the rA3AR (rA3AR; rA3AR): weak

SMILES: CCCCC#Cc1nc(NC)c2ncn([C@@H]3O[C@H](CO)[C@@H](O)[C@H]3O)c2n1 [[^3H]HEMADO, 2-hexyn-1-yl-N^6-methyladenosine]
effect on the rA3AR (rA3AR; rA3AR): no effect | Kd (hA3AR): 1.1 nM

SMILES: CNc1ncnc2c1ncn2[C@@H]1O[C@H](CO)[C@@H](O)[C@H]1O [N^6-methyladenosine]
Ki (rA3AR; rA3AR): 6390 nM | Ki (hA3AR): 9.3 nM

SMILES: CCCn1cc2c(nc(NC(=O)Nc3ccc(OC)cc3)n3nc(-c4ccco4)nc23)n1 [[^3H]MRE 3008F20, 5-[[(4-methoxyphenyl)amino]carbonyl]amino-8-propyl-2-(2-furyl)-pyrazolo[4,3-e]1,2,4-triazolo[1,5-c]pyrimidine]
binding to the rA3AR (rA3AR; rA3AR): do not bind effectively | binding to the mouse A3AR (mouse A3AR): do not bind effectively

SMILES: CC[C@@H]1CN2C(=O)N(C)c3nc(-c4ccccc4)[nH]c3C2=N1 [[^3H]PSB-11, (R)-4-methyl-8-ethyl-2-phenyl-imidazo[2,1-i]purin-5-one]
binding to the rA3AR (rA3AR; rA3AR): do not bind effectively | binding to the mouse A3AR (mouse A3AR): do not bind effectively
